Reference: patent US10995104B2, “Catalysts for reversing formaldehyde adducts and crosslinks” (Roche Molecular Systems, Inc., priority 2017, dated 2021)

These molecules were tested on methylene-bis-dAMP dimer (assay: Reversal of cross-linking of the methylene-bis-dAMP dimer with catalysts, monitored by HPLC). Conditions: 5.0 mM catalyst, 1.0 mM dAMP dimer, 50 mM phosphate buffer pH 5.0, 60° C., aliquots at 10-90 minutes (FIG. 3).
Experimental: Reverse crosslinking of the methylene-bis-dAMP dimer (as shown in FIG. 2) were monitored by HPLC. […] For each reaction mixture, an aliquot (10 μl) was taken at 10 minutes, 20 minutes, 40 minutes, 60 minutes and 90 minutes.
With Cl.Nc1ccccc1B(O)O [Compound 2, 2-Aminophenylboronic acid] the “reversal of cross-linking (shown as % of dAMP produced), rate compared with no catalyst” value was “rates that are much faster than when no catalyst was added”.
With Cc1ccc(N)c(B(O)O)c1 [Compound 3, (2-Amino-5-methylphenyl)boronic acid] the “reversal of cross-linking (shown as % of dAMP produced), rate compared with no catalyst” value was “rates that are much faster than when no catalyst was added”.
CCOP(=O)(OCC)C(N)c1ccccc1.Cl (stereo not shown) [Compound 6, (Aminophenylmethyl)phosphonic acid diethyl ester] was tested, and the “reversal of cross-linking (shown as % of dAMP produced), rate compared with no catalyst” value was “rates that are much faster than when no catalyst was added”.
With [Br][Bi]([Br])[Br] [Compound 7, Bismuth (III) bromide] the “reversal of cross-linking (shown as % of dAMP produced), rate compared with no catalyst” value was “rates that are much faster than when no catalyst was added”.
